Data on 2 compounds can be found in ChEMBL document CHEMBL4800731, “Data for DCP probe JNJ-65355394” (2021).

The structures appear in SMILES notation. Calls of active or inactive are those of the source. The calls are words filed in the database; no cut-off is given here.

The target in one assay is T1, Protein O-GlcNAcase (Homo sapiens, UniProt O60502).
T1 sequence (O60502 whole entry): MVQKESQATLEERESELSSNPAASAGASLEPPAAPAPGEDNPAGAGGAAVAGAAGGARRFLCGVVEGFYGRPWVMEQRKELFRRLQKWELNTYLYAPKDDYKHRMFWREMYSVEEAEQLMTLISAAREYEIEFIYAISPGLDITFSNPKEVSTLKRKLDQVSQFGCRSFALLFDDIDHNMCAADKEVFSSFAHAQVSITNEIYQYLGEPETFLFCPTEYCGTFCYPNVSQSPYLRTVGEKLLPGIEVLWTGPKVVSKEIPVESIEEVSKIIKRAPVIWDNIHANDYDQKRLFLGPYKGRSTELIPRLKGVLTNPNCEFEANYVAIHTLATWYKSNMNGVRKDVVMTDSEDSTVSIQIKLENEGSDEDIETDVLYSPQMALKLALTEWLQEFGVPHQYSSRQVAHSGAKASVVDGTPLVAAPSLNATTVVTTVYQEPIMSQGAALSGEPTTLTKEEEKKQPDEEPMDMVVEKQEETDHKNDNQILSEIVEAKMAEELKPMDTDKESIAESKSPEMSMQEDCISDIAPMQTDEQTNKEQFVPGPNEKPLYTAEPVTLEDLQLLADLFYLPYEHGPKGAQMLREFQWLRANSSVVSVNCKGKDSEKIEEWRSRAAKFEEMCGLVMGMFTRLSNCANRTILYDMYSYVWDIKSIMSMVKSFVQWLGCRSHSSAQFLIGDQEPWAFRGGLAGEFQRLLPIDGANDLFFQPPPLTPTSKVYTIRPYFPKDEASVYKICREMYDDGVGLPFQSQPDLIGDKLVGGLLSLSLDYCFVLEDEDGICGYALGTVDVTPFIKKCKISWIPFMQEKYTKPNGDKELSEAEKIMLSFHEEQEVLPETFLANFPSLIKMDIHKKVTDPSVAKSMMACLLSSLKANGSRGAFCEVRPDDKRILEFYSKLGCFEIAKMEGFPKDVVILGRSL
The assay is described as follows: Fluorescence-based enzymatic assay.

In assay [1] the target is T2, 5-hydroxytryptamine receptor 1A (Homo sapiens) (UniProt P08908).
T2 sequence (whole entry): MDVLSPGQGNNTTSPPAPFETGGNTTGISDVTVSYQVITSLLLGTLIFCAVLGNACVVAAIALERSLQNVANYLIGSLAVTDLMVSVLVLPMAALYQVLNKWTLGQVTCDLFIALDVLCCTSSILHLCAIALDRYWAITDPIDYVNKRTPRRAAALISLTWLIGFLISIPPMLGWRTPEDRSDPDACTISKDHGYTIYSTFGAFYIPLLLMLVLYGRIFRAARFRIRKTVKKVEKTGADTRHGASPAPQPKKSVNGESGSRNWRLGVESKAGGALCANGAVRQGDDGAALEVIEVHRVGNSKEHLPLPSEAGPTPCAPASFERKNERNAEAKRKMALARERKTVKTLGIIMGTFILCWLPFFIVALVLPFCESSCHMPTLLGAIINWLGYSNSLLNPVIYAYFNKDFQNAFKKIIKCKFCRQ
The following applies: Compound concentration 10.0 uM.

Assay [2] has as its target 5-hydroxytryptamine receptor 1B (Homo sapiens) (UniProt P28222). Conditions: Compound concentration 10.0 uM.
Assay [3] addresses 5-hydroxytryptamine receptor 1D (Homo sapiens) (UniProt P28221). The following applies: Compound concentration 10.0 uM.
For assay [4], the target named is 5-hydroxytryptamine receptor 5A (Homo sapiens) (UniProt P47898). Conditions: Compound concentration 10.0 uM.
The target in assay [5] is Sodium-dependent serotonin transporter (Homo sapiens, UniProt P31645). Conditions: Compound concentration 10.0 uM.
For assay [6], the target named is Sodium-dependent noradrenaline transporter (Homo sapiens) (UniProt P23975). Conditions: Compound concentration 10.0 uM.
Assay [7] concerns the target Sodium-dependent dopamine transporter (Homo sapiens, UniProt Q01959). Conditions: Compound concentration 10.0 uM.
The target in assay [8] is Kappa-type opioid receptor (Homo sapiens, UniProt P41145). The following applies: Compound concentration 10.0 uM.
In assay [9] the target is Histamine H1 receptor (Homo sapiens) (UniProt P35367). Conditions: Compound concentration 10.0 uM.
For assay [10], the target named is Alpha-1A adrenergic receptor (Homo sapiens) (UniProt P35348). Conditions: Compound concentration 10.0 uM.
Assay [11] deals with Alpha-2C adrenergic receptor (Homo sapiens) (UniProt P18825). Conditions: Compound concentration 10.0 uM.
Assay [12] concerns the target T3, Muscarinic acetylcholine receptor M2 (Homo sapiens) (UniProt P08172).
T3 sequence (whole entry): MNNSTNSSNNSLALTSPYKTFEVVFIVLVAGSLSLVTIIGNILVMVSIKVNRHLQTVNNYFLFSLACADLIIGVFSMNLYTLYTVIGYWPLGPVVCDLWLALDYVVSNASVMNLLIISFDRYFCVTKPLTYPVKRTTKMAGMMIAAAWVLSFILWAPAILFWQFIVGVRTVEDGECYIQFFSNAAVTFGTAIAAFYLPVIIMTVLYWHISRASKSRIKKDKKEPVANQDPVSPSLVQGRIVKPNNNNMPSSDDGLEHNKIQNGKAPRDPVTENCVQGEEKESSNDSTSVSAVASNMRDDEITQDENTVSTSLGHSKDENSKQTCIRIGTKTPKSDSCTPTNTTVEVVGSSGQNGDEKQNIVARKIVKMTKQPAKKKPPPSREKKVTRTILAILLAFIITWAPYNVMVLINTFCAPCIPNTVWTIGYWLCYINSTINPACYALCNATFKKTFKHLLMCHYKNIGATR
The following applies: Compound concentration 10.0 uM.

The target of assay [13] is Muscarinic acetylcholine receptor M4 (Homo sapiens) (UniProt P08173). Conditions: Compound concentration 10.0 uM.
Assay [14] addresses Alpha-1D adrenergic receptor (Homo sapiens) (UniProt P25100). Conditions: Compound concentration 10.0 uM.
For assay [15], the target named is Sigma intracellular receptor 2 (Homo sapiens, UniProt Q5BJF2). Conditions: Compound concentration 10.0 uM.
For assay [16], the target named is Sigma non-opioid intracellular receptor 1 (Homo sapiens, UniProt Q99720). The following applies: Compound concentration 10.0 uM.

Sodium-dependent serotonin transporter, sequence (P31645 whole entry, looked up): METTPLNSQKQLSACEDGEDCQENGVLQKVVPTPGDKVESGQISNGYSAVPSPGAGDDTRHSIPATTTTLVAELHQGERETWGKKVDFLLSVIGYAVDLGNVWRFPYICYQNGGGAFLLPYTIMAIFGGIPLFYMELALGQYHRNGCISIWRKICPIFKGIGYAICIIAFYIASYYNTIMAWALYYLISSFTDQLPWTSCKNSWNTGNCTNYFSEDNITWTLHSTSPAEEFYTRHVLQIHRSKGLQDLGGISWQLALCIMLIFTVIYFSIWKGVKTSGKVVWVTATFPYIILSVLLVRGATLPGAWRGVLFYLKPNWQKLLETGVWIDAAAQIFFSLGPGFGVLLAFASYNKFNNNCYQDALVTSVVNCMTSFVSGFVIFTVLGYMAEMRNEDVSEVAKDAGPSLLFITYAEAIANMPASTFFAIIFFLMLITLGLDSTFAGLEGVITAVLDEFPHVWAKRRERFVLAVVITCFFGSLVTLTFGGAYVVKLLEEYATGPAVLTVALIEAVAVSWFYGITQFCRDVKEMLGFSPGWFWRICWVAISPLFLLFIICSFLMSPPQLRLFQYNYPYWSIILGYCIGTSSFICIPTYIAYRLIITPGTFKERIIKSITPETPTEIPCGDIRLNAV
Sodium-dependent dopamine transporter, sequence (Q01959 whole entry): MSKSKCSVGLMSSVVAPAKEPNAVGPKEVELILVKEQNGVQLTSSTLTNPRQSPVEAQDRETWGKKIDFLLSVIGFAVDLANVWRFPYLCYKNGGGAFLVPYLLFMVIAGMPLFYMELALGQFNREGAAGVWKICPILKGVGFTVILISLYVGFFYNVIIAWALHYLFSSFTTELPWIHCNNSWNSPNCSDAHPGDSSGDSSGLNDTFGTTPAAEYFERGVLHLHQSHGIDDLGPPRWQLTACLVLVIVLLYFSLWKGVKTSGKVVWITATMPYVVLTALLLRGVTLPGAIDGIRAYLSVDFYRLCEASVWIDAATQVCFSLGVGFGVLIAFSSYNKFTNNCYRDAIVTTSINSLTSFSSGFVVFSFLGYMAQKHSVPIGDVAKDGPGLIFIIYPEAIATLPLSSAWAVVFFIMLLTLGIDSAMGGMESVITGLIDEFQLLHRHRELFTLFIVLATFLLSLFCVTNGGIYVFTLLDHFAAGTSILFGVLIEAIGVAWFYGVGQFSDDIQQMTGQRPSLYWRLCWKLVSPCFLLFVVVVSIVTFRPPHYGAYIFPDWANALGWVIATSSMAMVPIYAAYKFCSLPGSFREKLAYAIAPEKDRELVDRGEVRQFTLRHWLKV
5-hydroxytryptamine receptor 1D (Homo sapiens), sequence (P28221 whole entry): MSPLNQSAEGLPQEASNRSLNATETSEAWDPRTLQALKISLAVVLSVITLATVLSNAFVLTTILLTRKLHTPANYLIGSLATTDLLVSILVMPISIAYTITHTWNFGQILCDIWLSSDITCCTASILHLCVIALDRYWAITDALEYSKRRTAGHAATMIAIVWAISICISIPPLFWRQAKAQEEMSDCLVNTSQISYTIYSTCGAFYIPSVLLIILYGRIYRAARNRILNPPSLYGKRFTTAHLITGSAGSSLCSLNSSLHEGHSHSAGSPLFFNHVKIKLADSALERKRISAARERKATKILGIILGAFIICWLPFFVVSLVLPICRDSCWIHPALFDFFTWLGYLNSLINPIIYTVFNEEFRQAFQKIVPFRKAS
Kappa-type opioid receptor, sequence (P41145 whole entry): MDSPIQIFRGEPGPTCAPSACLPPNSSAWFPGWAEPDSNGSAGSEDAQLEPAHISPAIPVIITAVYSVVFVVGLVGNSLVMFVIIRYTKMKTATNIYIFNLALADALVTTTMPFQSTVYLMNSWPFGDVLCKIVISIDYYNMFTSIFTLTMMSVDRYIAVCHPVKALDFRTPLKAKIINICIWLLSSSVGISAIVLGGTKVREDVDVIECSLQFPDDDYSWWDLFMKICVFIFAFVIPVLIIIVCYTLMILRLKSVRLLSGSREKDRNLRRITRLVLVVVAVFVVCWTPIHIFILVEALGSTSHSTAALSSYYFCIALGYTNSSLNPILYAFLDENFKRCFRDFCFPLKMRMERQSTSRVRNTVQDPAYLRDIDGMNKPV
Alpha-1A adrenergic receptor (Homo sapiens), sequence (P35348 whole entry): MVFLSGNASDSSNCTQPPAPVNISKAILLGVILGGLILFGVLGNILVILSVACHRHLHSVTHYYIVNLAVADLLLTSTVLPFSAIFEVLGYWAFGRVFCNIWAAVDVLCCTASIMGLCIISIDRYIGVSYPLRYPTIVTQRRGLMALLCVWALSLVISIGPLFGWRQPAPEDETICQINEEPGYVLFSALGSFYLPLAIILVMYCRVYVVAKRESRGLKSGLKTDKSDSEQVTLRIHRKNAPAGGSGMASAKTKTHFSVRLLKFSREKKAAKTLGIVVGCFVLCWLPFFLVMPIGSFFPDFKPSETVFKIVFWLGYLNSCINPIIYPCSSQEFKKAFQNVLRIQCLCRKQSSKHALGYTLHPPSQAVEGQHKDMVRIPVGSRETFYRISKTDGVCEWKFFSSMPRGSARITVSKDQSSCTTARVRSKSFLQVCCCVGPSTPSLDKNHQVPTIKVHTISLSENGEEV
Sodium-dependent noradrenaline transporter (Homo sapiens), sequence (P23975 whole entry): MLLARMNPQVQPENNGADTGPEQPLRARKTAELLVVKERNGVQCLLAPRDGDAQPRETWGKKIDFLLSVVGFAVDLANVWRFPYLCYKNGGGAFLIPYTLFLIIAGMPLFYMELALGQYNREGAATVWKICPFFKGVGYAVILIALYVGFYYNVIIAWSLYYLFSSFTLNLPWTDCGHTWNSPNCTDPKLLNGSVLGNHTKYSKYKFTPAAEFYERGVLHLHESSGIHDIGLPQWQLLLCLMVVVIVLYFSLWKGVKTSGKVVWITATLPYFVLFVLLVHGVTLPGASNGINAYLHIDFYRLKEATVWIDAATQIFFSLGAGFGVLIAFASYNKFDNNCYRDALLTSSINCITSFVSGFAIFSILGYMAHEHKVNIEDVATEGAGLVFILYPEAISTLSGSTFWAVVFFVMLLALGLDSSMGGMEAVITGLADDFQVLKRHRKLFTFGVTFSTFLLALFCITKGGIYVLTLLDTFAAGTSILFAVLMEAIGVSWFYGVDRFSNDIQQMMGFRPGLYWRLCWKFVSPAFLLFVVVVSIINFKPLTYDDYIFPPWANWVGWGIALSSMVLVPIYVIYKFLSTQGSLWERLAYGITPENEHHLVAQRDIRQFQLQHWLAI
5-hydroxytryptamine receptor 1B (Homo sapiens), sequence (P28222 whole entry): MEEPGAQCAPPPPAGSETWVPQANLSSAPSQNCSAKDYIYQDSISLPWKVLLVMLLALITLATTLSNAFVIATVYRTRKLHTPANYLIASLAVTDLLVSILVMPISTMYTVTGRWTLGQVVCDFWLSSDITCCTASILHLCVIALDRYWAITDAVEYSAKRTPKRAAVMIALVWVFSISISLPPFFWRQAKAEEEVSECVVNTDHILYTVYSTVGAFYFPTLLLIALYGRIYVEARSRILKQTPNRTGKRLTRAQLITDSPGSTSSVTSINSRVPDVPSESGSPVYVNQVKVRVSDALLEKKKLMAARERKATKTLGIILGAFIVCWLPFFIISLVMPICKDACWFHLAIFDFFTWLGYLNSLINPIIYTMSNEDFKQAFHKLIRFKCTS
5-hydroxytryptamine receptor 5A (Homo sapiens), sequence (P47898 whole entry): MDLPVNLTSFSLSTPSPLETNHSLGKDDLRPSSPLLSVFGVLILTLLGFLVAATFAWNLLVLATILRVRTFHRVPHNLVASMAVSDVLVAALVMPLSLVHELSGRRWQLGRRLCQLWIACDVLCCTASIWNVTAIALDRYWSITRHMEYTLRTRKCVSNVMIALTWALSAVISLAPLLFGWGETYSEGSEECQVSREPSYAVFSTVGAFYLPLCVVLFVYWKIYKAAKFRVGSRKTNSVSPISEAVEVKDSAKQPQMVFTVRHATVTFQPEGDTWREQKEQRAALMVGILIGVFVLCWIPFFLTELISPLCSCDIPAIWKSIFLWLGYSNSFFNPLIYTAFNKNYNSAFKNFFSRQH
Alpha-2C adrenergic receptor (Homo sapiens), sequence (P18825 whole entry): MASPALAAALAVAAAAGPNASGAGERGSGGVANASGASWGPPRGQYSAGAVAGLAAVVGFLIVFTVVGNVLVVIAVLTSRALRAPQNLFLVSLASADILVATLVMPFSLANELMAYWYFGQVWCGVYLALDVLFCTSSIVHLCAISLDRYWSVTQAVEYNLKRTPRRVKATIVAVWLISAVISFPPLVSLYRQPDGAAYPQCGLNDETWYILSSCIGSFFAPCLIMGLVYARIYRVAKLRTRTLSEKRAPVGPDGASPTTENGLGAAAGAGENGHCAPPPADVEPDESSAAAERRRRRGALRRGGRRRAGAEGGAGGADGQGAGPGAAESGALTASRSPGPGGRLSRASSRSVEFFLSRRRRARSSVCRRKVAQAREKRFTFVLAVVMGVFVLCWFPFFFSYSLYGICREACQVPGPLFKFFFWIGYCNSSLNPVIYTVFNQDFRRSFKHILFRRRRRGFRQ
Alpha-1D adrenergic receptor (Homo sapiens), sequence (P25100 whole entry): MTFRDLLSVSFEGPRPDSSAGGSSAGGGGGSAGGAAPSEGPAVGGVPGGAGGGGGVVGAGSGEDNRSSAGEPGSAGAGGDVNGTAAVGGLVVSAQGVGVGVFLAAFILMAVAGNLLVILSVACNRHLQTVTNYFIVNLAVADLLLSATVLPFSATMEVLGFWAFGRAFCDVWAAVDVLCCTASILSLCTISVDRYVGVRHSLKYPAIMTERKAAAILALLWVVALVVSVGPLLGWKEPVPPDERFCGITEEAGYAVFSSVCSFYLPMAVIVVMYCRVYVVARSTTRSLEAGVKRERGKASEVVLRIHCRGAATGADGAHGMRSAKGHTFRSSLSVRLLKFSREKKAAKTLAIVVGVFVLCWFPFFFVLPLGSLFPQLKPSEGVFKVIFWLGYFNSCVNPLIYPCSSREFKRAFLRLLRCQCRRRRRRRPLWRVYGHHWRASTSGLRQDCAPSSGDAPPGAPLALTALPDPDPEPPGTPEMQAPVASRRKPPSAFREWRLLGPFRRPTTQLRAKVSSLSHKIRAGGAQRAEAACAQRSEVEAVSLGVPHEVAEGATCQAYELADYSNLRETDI

What is called IC50 is the concentration that gives 50% inhibition. The term inhibition denotes the change of the read-out against control, counted positive when it falls. For the compound `CC(=O)Nc1ncc(CN2CCC[C@H](Cc3cc(C)nc(C)c3)C2)s1` [JNJ-65355394], on Protein O-GlcNAcase, the IC50 is 0.0013 µM (active). The inhibition in assay [1] is 22.2%; in assay [2], -2.53%; in assay [3], 11.6%; in assay [4], 18.7%; in assay [5], 7.21%; in [6], 12.7%. Moreover, the inhibition in assay [7] was 13.4%; in assay [8], 75.1%; in assay [9], 44%; in assay [10], 2.36%; in assay [11], 31.9%; in assay [12], 9.54%. The inhibition is -5.53% in assay [13], 8.3% in assay [14], 19% in assay [15] and 46.5% in assay [16].
In the case of `CC(=O)Nc1nc(CN2CCC[C@H](Cc3cc(C)nc(C)c3)C2)cs1` [JNJ-73924149], the IC50 at Protein O-GlcNAcase is recorded as > 10 µM (not active). The inhibition is 12.3% in assay [1]; 4.01% in assay [2]; 14.5% in [3]; 17.8% in [4]; 52.3% in [5]; 17.8% in assay [6]. For the same compound, the inhibition in [7] was 81.9%; in [8] it was 17.9%; in [9], 44.2%; in [10], -1.89%; in assay [11] it was 36.5%; in assay [12], 8.65%. Besides, the inhibition in assay [13] was 8.78%; in assay [14], 7.45%; in [15], 59.6%; in assay [16], 101%.
